In PubChem BioAssay (NCI):
Several values for one entry are separate records, joined by “and”; a condition that tells them apart may be missing. Equal entries are not always repeated.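 96-well plates; 48 h exposure; 5 concentrations. Endpoints by linear interpolation between flanking doses. Not reached: highest tested concentration assigned. GI50 marks 50% less growth. TGI: total growth inhibition.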

Key:
Experiment in all cases: NCI-60 cell line screen, 48 h; in the data active = GI50 below about 0.43 µM; inactive = the rest
[1] = tested on: HL-60(TB) leukemia
[2] = tested on: HS 578T breast
[3] = tested on: NCI/ADR-RES ovarian
[4] = tested on: HOP-62 NSCLC
[5] = tested on: HCT-15 colon
[6] = tested on: SN12C renal
[7] = tested on: OVCAR-4 ovarian
[8] = tested on: SNB-19 CNS
[9] = tested on: U251 CNS
[10] = tested on: NCI-H226 lung
[11] = tested on: SK-MEL-28 melanoma
[12] = tested on: KM12 colon
[13] = tested on: EKVX NSCLC
[14] = tested on: OVCAR-3 ovarian
[15] = tested on: MDA-MB-231 breast
[16] = tested on: ACHN renal
[17] = tested on: SF-268 CNS
[18] = tested on: COLO 205 colon
[19] = tested on: T-47D breast
[20] = tested on: TK-10 renal
[21] = tested on: HOP-92 NSCLC
[22] = tested on: MOLT-4 leukemia
[23] = tested on: UACC-257 melanoma
[24] = tested on: A549 NSCLC
[25] = tested on: SNB-75 CNS
[26] = tested on: HT29 colon
[27] = tested on: SF-539 CNS
[28] = tested on: NCI-H23 lung
[29] = tested on: 786-0 renal
[30] = tested on: CAKI-1 renal
[31] = tested on: M14 melanoma
[32] = tested on: MDA-MB-435
[33] = tested on: OVCAR-8 ovarian
[34] = tested on: RXF 393 renal
[35] = tested on: DU-145 prostate
[36] = tested on: SK-MEL-2 melanoma
[37] = tested on: SK-OV-3 ovarian
[38] = tested on: HCT-116 colon
[39] = tested on: BT-549 breast
[40] = tested on: HCC-2998 colon
[41] = tested on: SF-295 CNS
[42] = tested on: IGROV1 ovarian
[43] = tested on: OVCAR-5 ovarian
[44] = tested on: NCI-H460 lung
[45] = tested on: PC-3 prostate
[46] = tested on: SK-MEL-5 melanoma
[47] = tested on: UACC-62 melanoma
[48] = tested on: NCI-H522 lung
[49] = tested on: SW-620 colon
[50] = tested on: UO-31 renal
[51] = tested on: MCF7 breast
[52] = tested on: LOX IMVI melanoma
[53] = tested on: K-562 leukemia

N=C(N)c1ccc(-c2ccc(-c3ccc(Cl)c(Cl)c3)o2)cc1
5.52 µM: TGI [2]
inactive: GI50 [1] 1550 nM | GI50 [2] 2100 nM
4.05 µM: TGI [1]

COc1cc(/C=C/c2cc(O)c(C/C=C(\C)CC/C=C(\C)CO)c(O)c2)cc2c1O[C@]1(C)CC[C@@H](O)C(C)(C)[C@H]1C2
> 79.6 µM: TGI [32]
> 42.9 µM: TGI [30]
46.5 µM: TGI [38]
11.1 µM: TGI [27]
> 70.2 µM: TGI [14]
> 89 µM: TGI [4]
> 72.4 µM: TGI [5]
98.6 µM: TGI [13]
8.3 µM and > 72.6 µM: TGI [9]
> 100 µM: TGI [3] | TGI [6] | TGI [7] | TGI [8] | TGI [10] | TGI [11] | TGI [12] | TGI [15] | TGI [17] | TGI [18] | TGI [19] | TGI [23] | TGI [25] | TGI [26] | TGI [34] | TGI [35] | TGI [36] | TGI [37] | TGI [42] | TGI [43] | TGI [44] | TGI [45]
> 82.3 µM: TGI [33]
5.69 µM: TGI [1]
94.9 nM: TGI [22]
> 71.4 µM: TGI [16]
active: GI50 [29] 17.2 nM and 130 nM
> 54.7 µM: TGI [39]
inactive: GI50 [4] 7.06 µM and 12.9 µM | GI50 [7] 32.5 µM | GI50 [8] > 91.9 µM | GI50 [11] > 58.3 µM | GI50 [14] > 29.3 µM | GI50 [15] 31 µM | GI50 [18] 3.21 µM and 15.6 µM | GI50 [19] > 62.4 µM | GI50 [23] > 100 µM | GI50 [1] 511 nM | GI50 [24] 3.96 µM and 9.59 µM | GI50 [25] 55 µM | GI50 [26] 31.1 µM | GI50 [27] 3.4 µM | GI50 [28] 4.93 µM and 20.5 µM | GI50 [30] 9.36 µM | GI50 [31] 0.486 µM and 3.68 µM | GI50 [32] 38.4 µM | GI50 [33] > 53.3 µM | GI50 [35] 26.4 µM | GI50 [36] > 100 µM | GI50 [37] > 100 µM | GI50 [39] 4.14 µM | GI50 [40] 12 µM | GI50 [41] 1.1 µM | GI50 [42] > 100 µM | GI50 [43] > 100 µM
3.72 µM and 19 µM: TGI [31]
> 62.5 µM: TGI [24]
39.6 µM: TGI [40]
> 93.8 µM: TGI [20]
> 84.6 µM: TGI [21]
> 93.7 µM: TGI [28]

O=C1N=C(Nc2nc(-c3csc(NC4=NC(=O)/C(=C\c5ccc(Cl)cc5)S4)n3)cs2)S/C1=C/c1ccc(Cl)cc1
35.6 µM: TGI [12]
inactive: GI50 [46] 3.83 µM | GI50 [3] 18.1 µM | GI50 [4] 3.29 µM | GI50 [5] 40.4 µM | GI50 [6] 7.85 µM | GI50 [47] 6.03 µM | GI50 [8] 12 µM | GI50 [9] 4.83 µM | GI50 [10] 3.79 µM | GI50 [11] 42.8 µM | GI50 [12] 10.1 µM | GI50 [13] 12.3 µM | GI50 [14] 10.5 µM | GI50 [15] 10.2 µM | GI50 [16] 11.2 µM | GI50 [17] 8.29 µM | GI50 [18] 29.9 µM | GI50 [19] 18.8 µM | GI50 [20] 8.44 µM | GI50 [21] 8.61 µM | GI50 [22] 1690 nM | GI50 [23] 5.14 µM | GI50 [1] 12600 nM | GI50 [24] 10.5 µM | GI50 [26] 23.6 µM | GI50 [27] 15.4 µM | GI50 [28] 13.5 µM | GI50 [29] 1600 nM | GI50 [30] 20 µM | GI50 [31] 3.03 µM | GI50 [2] > 50000 nM | GI50 [32] 12.8 µM | GI50 [33] 8.99 µM | GI50 [48] 24.7 µM | GI50 [34] 11.6 µM | GI50 [35] 17 µM | GI50 [36] > 50 µM | GI50 [49] 39 µM | GI50 [50] 17.6 µM | GI50 [51] 3.97 µM | GI50 [52] 8.34 µM | GI50 [40] 13.3 µM | GI50 [41] 17.4 µM | GI50 [53] 7.23 µM | GI50 [42] 19.8 µM | GI50 [43] 25.8 µM | GI50 [44] 7.86 µM | GI50 [45] 8.78 µM
25.6 µM: TGI [20]
30.2 µM: TGI [33]
> 50000 nM: TGI [22]
16.4 µM: TGI [47]
45.2 µM: TGI [40]
33.8 µM: TGI [1]
18 µM: TGI [4]
> 50 µM: TGI [3] | TGI [5] | TGI [8] | TGI [9] | TGI [11] | TGI [13] | TGI [17] | TGI [18] | TGI [19] | TGI [24] | TGI [26] | TGI [28] | TGI [30] | TGI [2] | TGI [32] | TGI [48] | TGI [34] | TGI [35] | TGI [36] | TGI [49] | TGI [50] | TGI [51] | TGI [52] | TGI [41] | TGI [53] | TGI [42] | TGI [43] | TGI [44]
48.5 µM: TGI [16]
18.1 µM: TGI [23]
33.7 µM: TGI [6]
49 µM: TGI [45]
11.5 µM: TGI [31]
46.2 µM: TGI [27]
22.3 µM: TGI [10]
28.5 µM: TGI [21]
35 µM: TGI [15]
12 µM: TGI [29]
41 µM: TGI [46]
37.3 µM: TGI [14]
